For experiment [1], the target named is N2 influenza virus neuraminidase (Influenza A virus, UniProt P06820). Put plainly: biochemical.
The test system of experiment [2] is influenza A/Singapore/1/57 (H2N2). As to the kind of experiment: microbe, parasite or virus in culture. The format is cell-based. To be noted: H2N2, MDCK, 72 h, read-out: IC50 Plaque Reduction, Influenza A.
Experiment [3] deals with Influenza B/Victoria/102/85. Put plainly: microbe, parasite or virus in culture. To be noted: MDCK, 72 h, read-out: IC50 Plaque Reduction, Influenza B. It counts as cell-based.
In experiment [4] the test system is Neuraminidase from Arthrobacter sialophilus. Particulars: in vitro; Kumar et al. 1981, 1982; cited from earlier work.
Experiment [5] has as its system Neuraminidase in at least some strains of influenza or parainfluenza viruses. To be noted: in vitro; Zakstel'skaya et al. 1972; cited from earlier work.
The next experiment deals with neuraminidase. To be noted: type of neuraminidase not identified; cited from earlier work.
A further experiment deals with N9 neuraminidase (Influenza A virus, UniProt P03472). As to the kind of experiment: biochemical. To be noted: read-out: Ki, inhibition of N9 neuraminidase.
Experiment [6] relates to H2N2 influenza A virus (A/Sing/1/57). It counts as in vivo, mice. Particulars: for % AUC (lung virus titre, compared to untreated mice): days 1-3; for titre of virus in lung tissue: intranasal, before and during challenge, 1 to 3 days after infection.
The subject of another experiment is influenza virus. As to the kind of experiment: microbe, parasite or virus in culture. It counts as cell-based. To be noted: unidentified influenza virus, read-out: IC50 plaque reduction.
[7] abbreviates: N2, 37° C., read-out: Ki, inhibition of N2 neuraminidase.
Where [8] appears, read: Experiment 1, 25 mg/kg intranasal.
Where [9] appears, read: Experiment 2, 12.5 mg/kg intranasal.
Setting [10] is: Experiment 3, 12.5 mg/kg intranasal.

≈ marks a conversion by molar mass, not a printed value. Like-named read-outs stand apart in the source and are kept apart here.

N9 neuraminidase, sequence (P03472 whole entry, looked up): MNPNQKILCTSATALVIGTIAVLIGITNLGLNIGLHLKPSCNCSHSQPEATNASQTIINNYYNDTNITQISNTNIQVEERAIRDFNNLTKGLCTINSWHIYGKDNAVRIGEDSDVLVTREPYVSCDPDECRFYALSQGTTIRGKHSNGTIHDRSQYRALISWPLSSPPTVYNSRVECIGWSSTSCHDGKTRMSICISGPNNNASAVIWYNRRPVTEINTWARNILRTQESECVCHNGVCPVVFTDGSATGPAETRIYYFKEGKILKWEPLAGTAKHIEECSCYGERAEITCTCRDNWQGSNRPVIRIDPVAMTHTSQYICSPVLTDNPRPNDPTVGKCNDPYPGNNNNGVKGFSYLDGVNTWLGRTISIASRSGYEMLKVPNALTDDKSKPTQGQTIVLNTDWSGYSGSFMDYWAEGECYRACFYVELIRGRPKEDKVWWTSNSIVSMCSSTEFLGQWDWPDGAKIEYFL
N2 influenza virus neuraminidase, sequence (P06820 whole entry, looked up): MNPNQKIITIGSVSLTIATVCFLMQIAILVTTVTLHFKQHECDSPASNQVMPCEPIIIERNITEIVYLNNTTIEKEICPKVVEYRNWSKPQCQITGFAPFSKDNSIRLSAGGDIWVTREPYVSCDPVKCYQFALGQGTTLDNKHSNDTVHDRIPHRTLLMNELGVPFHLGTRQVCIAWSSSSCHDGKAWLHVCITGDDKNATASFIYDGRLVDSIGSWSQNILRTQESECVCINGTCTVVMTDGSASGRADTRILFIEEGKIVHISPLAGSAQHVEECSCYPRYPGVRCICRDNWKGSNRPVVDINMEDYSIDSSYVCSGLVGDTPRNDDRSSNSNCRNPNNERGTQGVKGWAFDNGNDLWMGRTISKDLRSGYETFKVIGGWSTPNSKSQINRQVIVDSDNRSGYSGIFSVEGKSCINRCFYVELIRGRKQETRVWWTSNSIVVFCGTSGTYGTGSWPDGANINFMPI

For orientation: Ki means a measure of affinity in units of concentration, obtained from inhibition or displacement. Consider `CC(=O)N[C@H]1[C@H]([C@H](O)[C@H](O)CO)OC(C(=O)O)=C[C@H]1N=[N+]=[N-]` [Compound 17, Sodium 5-acetamido-4-azido-2,3,4,5-tetradeoxy-D-glycero-D-talo-non-2-enopyranosonate], for which, in experiment [1] (setting [7]), the Ki is 28 µM.

Regarding `O=C(O)C1=C[C@H](O)[C@@H](O)[C@H]([C@H](O)[C@H](O)CO)O1` [Compound 35, Sodium 2,-3-dideoxy-D-glycero-D-galacto-non-2-enopyranosonate], in experiment [1] (setting [7]), the inhibitory constant (Ki) was 480 µM.

The term IC50 denotes the concentration needed to halve the response being measured. For the molecule `N[C@H]1[C@H]([C@H](O)[C@H](O)CO)OC(C(=O)O)=C[C@@H]1N` [Compound 38, Sodium 4,5-Diamino-2,3,4,5-tetradeoxy-D-glycero-D-galacto-non-2-enopyranosonate], the Ki in experiment [1] (setting [7]) was 0.65 µM. Besides, the figures for the IC50 in experiment [2] and in experiment [3] were 11 µM and 6.8 µM, respectively.

For `C=CCN(O)[C@H]1C=C(C(=O)O)O[C@@H]([C@H](O)[C@H](O)CO)[C@@H]1NC(C)=O` [Compound 45, Sodium 5-acetamido-4-N-allyl-N-hydroxy-2,3,4,5-tetradeoxy-D-glycero-D-galacto-non-2-enopyranosonate], the IC50 is 4.7 µM in experiment [2] and 2.7 µM in experiment [3].

As to `CC(=O)N[C@H]1[C@H]([C@H](O)[C@H](O)CC#N)OC(C(=O)O)=C[C@@H]1O` [Compound 44, 5-Acetamido-9-cyano-2,3,5,9-tetradeoxy-D-glycero-D-galacto-non-2-enopyranosonic acid], the Ki in [1] (setting [7]) amounted to 3 µM.

For the molecule `CC(=O)N[C@@H]1C(=O)C=C(C(=O)O)O[C@H]1[C@H](O)[C@H](O)CO` [5-acetamido-2,6-anhydro-2,3,5-trideoxy-D-manno-non-2-en-4-ulosonate], the “inhibition of Arthrobacter sialophilus neuraminidase” value in experiment [4] is on record as “inhibited in vitro”.

Regarding `CC(=O)N[C@H]1[C@H]([C@H](O)[C@H](O)CO)O[C@@H](C(=O)O)C[C@@H]1O` [2-deoxy-N acetyl-α-D-neuraminic acid, 2-deoxy-N-acetyl-α-D-neuraminic acid, reference compound], the Ki in [1] (setting [7]) was 300 µM.

In the case of `CC(=O)NC[C@@H](O)[C@@H](O)[C@@H]1OC(C(=O)O)=C[C@H](O)[C@H]1NC(C)=O` [Compound 42, 5,9-diacetamido-2,3,5,9-tetradeoxy-D-glycero-D-galacto-non-2-enopyranosonicacid], in [1] (setting [7]), the Ki was determined as 14.5 µM.

Turning to `O=C1CNC(=O)[C@H]([C@H](O)[C@H](O)CO)O1` [3-aza-2,3,4-trideoxy-4-oxo-D-arabinoctonic acid δ-lactone], the “inhibition of influenza or parainfluenza virus neuraminidase” value in [5] is recorded as “inhibited in vitro”.

On to `COC(=O)C1=C[C@H](O)[C@@H](NC(C)=O)[C@H]([C@H](O)[C@H](O)CC#N)O1` [Compound 43, Methyl 5-acetamido-9-cyano-2,3,5,9-tetradeoxy-D-glycero-D-galacto-non-2-enopyranosonate], for which the Ki in [1] (setting [7]) is ~3000 µM.

With `[N-]=[N+]=NC1(C(=O)O)C[C@H](O)[C@@H](N)[C@H]([C@H](O)[C@H](O)CO)S1` (stereo partly drawn) [2-α-azido-6-thio-neuraminic acid], the inhibition of neuraminidase entry with neuraminidase is recorded as “reported to inhibit neuraminidase”.

On to `CC(=O)N[C@H]1[C@H]([C@H](O)[C@H](O)CO)OC(C(=O)O)=C[C@@H]1N(C)C` [Compound 23, Sodium 5-acetamido-4-N,N-dimethylamino-2,3,4,5-tetradeoxy-D-glycero-D-galacto-non-2-enopyranosonate], for which the Ki in experiment [1] (setting [7]) is 0.7 µM.

In the case of `N[C@H]1[C@H]([C@H](O)[C@H](O)CO)SC(C(=O)O)=C[C@@H]1O` [2-deoxy-2,3-didehydro-6-thioneuraminic acid], the inhibition of neuraminidase entry in the experiment on neuraminidase is “reported to inhibit neuraminidase”.

As for `CC(=O)N[C@H]1[C@H]([C@H](O)[C@H](O)CO)OC(C(=O)O)=C[C@H]1O` [2,3-dehydro-4-epi-N-acetyl-neuraminic acid], in experiment [4], the “inhibition of Arthrobacter sialophilus neuraminidase” value was “inhibited in vitro”.

Regarding `COC(=O)C1=C[C@H]2OC(C)=N[C@H]2[C@H]([C@H](OC(C)=O)[C@@H](COC(C)=O)OC(C)=O)O1` [Compound 13, Methyl 7,8,9-tri-O-acetyl-2,3,5-trideoxy-4',5'-dihydro-2'-methyloxazolo [5,4-d] D-glycero-D-talo-non-2-enopyranosonate], the Ki in experiment [1] (setting [7]) was 30 µM.

Turning to `C=CCN[C@H]1C=C(C(=O)O)O[C@@H]([C@H](O)[C@H](O)CO)[C@@H]1NC(C)=O` [Compound 11, Sodium 5-Acetamido-4-N-allylamino-2,3,4,5-tetra-deoxy-D-glycero-D-galacto-non-2-enopyranosonate], the Ki (in experiment [1] (setting [7]); at N9 neuraminidase) was 2.5 µM in each case.

On to `NC12CC3CC(CC(C3)C1)C2` [Amantadine], for which the “% AUC (lung virus titre, compared to untreated mice)” value (shortened to “% AUC”) in [6] (setting [8]) was 0.08%; in experiment [6] (setting [9]) it was 0.03%; in [6] (Experiment 2, 25 mg/kg) it was 0.2%; in experiment [6] (setting [10]), 8.8%.

For the molecule `CC(=O)N[C@H]1[C@H]([C@H](O)[C@H](O)CO)OC(C(=O)O)=C[C@@H]1N=[N+]=[N-]` [Compound 4, Sodium 5-Acetamido-4-azido-2,3,4,5-tetradeoxy-D-glycero-D-galacto-non-2-enopyranosonate], in experiment [1] (setting [7]), the Ki came to 2 µM.

For `CC(=O)N[C@H]1[C@H]([C@H](O)[C@H](O)CO)OC(F)(C(=O)O)C(F)[C@@H]1O` (stereo partly drawn) [N-acetyl-2,3-difluoro-α-D-neuraminic acid], the inhibition of neuraminidase entry in the experiment on neuraminidase is recorded as “reported to inhibit neuraminidase”.

Take `CC(=O)N[C@H]1[C@H]([C@H](O)[C@H](O)CO)OC(C(=O)O)=C[C@H]1N` [Compound 14, Sodium 5-Acetamido-4-amino-2,3,4,5-tetra deoxy-D-glycero-D-talo-non-2-enopyranosonate]: the Ki (in experiment [1] (setting [7]); on N9 neuraminidase) was 0.1 µM in each case. The figures for the IC50 in experiment [2] and in experiment [3] were 3 µM and 1.2 µM, respectively. In addition, the “% AUC” value in experiment [6] (setting [10]) stood at 21.1%. Besides, the “titre of virus in lung tissue” value in experiment [6] is given as “reduced the titre of virus in lung tissue”.

Take `CC(=O)N[C@H]1[C@H]([C@H](O)[C@H](O)CO)OC(C(=O)O)=C[C@@H]1N` [Compound 6, Sodium 5-Acetamido-4-amino-2,3,4,5-tetradeoxy-D-glycero-D-galacto-non-2-enopyranosonate]: the Ki turned out to be 0.06 µM in experiment [1] (setting [7]); 0.01 µM in experiment [1] (read-out: Ki, inhibition of N2 virus neuraminidase); 0.19 µM on N9 neuraminidase. In addition, the IC50 in experiment [2] and in experiment [3] was 1.6 µM in each case. Further, in [6] (setting [8]), the “% AUC” value is 0.06%. In experiment [6], the “titre of virus in lung tissue” value is “reduced the titre of virus in lung tissue”.

With `COC(=O)C1=C[C@@H](N)[C@@H](NC(C)=O)[C@H]([C@H](OC(C)=O)[C@@H](COC(C)=O)OC(C)=O)O1` [Compound 12, Methyl 5-acetamido-7,8,9-tri-O-acetyl-4-amino-2,3,4,5-tetradeoxy-D-glycero-D-talo-non-2-enopyranosonate], in experiment [1] (setting [7]), the Ki is ~3000 µM.

Take `COC(=O)C1=C[C@H](O)[C@@H](NC(C)=O)[C@H]([C@H](O)[C@H](O)CNC(C)=O)O1` [Compound 41, Methyl 5,9-diacetamido-2,3,5,9-tetradeoxy-D-glycero-D-galacto-non-2-enopyranosonate]: the Ki in [1] (setting [7]) was found to be 36 µM.

For the molecule `C=CCN(CC=C)[C@H]1C=C(C(=O)O)O[C@@H]([C@H](O)[C@H](O)CO)[C@@H]1NC(C)=O` [Compound 9, Sodium 5-Acetamido-4-N,N-diallylamino-2,3,4,5-tetradeoxy-D-glycero-D-galacto-non-2-enopyranosonate], the Ki in [1] (setting [7]) amounted to 4 µM.

As to `CC(=O)N[C@H]1[C@H]([C@H](O)[C@H](O)CO)OC(C(=O)O)=C[C@@H]1O` [DANA, 2-deoxy-2,3-didehydro-N-acetylneuraminic acid], the “% AUC” value in experiment [6] (setting [8]) is reported as 0.18%; in experiment [6] (setting [9]), 2.0%; in experiment [6] (setting [10]) it was 48.0%. For the same molecule, the “titre of virus in lung tissue” value in experiment [6] is given as “reduced the titre of virus in lung tissue”. For the same molecule, in the experiment with influenza virus, the IC50 came to 5 µg/mL (≈ 17.2 µM). For the same molecule, the “inhibition of Arthrobacter sialophilus neuraminidase” value in [4] is recorded as “inhibited in vitro”.

For the molecule `CC(=O)N[C@H]1[C@H]([C@H](O)[C@H](O)CO)OC(C(=O)O)=C[C@@H]1NCCO` [Compound 29, Sodium 5-acetamido-4-N-2'-hydroxyethylamino-2,3,4,5-tetradeoxy-D-glycero-D-galacto-non-2-enopyranosonate], the Ki (in experiment [1] (setting [7]); on N9 neuraminidase) was 1.6 µM in each case. Further, the IC50 is 60 µM in experiment [2] and 7 µM in experiment [3].

`COC(=O)CN[C@H]1C=C(C(=O)OC)O[C@@H]([C@H](O)[C@H](O)CO)[C@@H]1NC(C)=O` [Compound 25, Methyl 5-acetamido-4-N-methoxycarbonylmethylamino-2,3,4,5-tetradeoxy-D-glycero-D-galacto-non-2-enopyranosonate]: the Ki in [1] (setting [7]) came out at 7 µM.

For `NC(=O)c1ncn([C@@H]2O[C@H](CO)[C@@H](O)[C@H]2O)n1` [Ribavirin], in [6] (Experiment 2, 25 mg/kg), the “% AUC” value was determined as 29.8%.

For `CN[C@H]1C=C(C(=O)O)O[C@@H]([C@H](O)[C@H](O)CO)[C@@H]1NC(C)=O` [Compound 20, Sodium 5-acetamido-4-N-methylamino-2,3,4.5-tetradeoxy-D-glycero-D-galacto-non-2-enopyranosonate], the Ki in [1] (setting [7]) is 1.15 µM.

Values taken from patent US5648379A (priority 1990, dated 1997).
